Measured values as given in patent US20180193412A1, “Method of In Vivo Treatment” (Hexima Limited, priority 2015, published 2018).

Key:
[1] = system: Trichophyton rubrum, T. interdigitale, Microsporum fulvum and C. albicans; assay: Inhibition assays of Example 1, summary across the range of fungal pathogens; format: cell-based; conditions: summary of Table 3, at the concentrations tested
Protocol: (§1) The inhibitory effects of the plant defensins on the growth of Trichophyton rubrum, T. interdigitale, Microsporum fulvum and C. albicans (all obtained from the National Mycology Reference Centre, South Australia Pathology at the Women's and Children's Hospital, Adelaide, Australia) are measured essentially as described by Broekaert et al. (1990) FEMS Microbiol Lett 69:55-59.
(§2) Spores of T. rubrum, T. interdigitale and M. fulvum are isolated from sporulating fungus growing on ½ strength Sabouraud dextrose agar. Spores were removed from the plates by the addition of ½ strength potato dextrose broth (PDB). C. albicans cells are grown in Yeast Peptone Broth (YPD) for 16 h. Spore and cell concentrations are measured using a hemocytometer.
(§3) Antifungal assays are conducted in 96 well microtitre plates essentially as herein described. Wells are loaded with 20 μL of filter sterilized (0.22 Ξ m syringe filter, Millipore) defensin (10× stock for each final concentration) or water and 80 μL of 5×10^4 spores/mL (T. rubrum, T. interdigitale, M. fulvum) or 5,000 cells/mL (C. albicans) in ½ strength PDB. The plates are incubated at 30° C. Fungal growth is assayed by measuring optical density at 595 nm (A595) using a microtitre plate reader (SpectraMax Pro M2; Molecular Devices. Growth is allowed to proceed until the optical density (OD) of the fungus in the absence of any test defensin reached an OD of 0.2. Each test is performed in duplicate.

C. tropicalis = assay: Inhibition of growth of C. tropicalis, Example 2 antifungal assay; format: cell-based; conditions: ½ strength PDB, 30° C., A595
Protocol: (§4) The inhibitory effects of the plant defensins on the growth of Candida albicans, Aspergillus fumigatus (obtained from the National Mycology Reference Centre, South Australia Pathology at the Women's and Children's Hospital, Adelaide, Australia), C. glabrata, C. tropicalis, A. flavus, A. niger, A. fumigants, Cryptococcus neoformans and C. gattii (obtained from Dee Carter, University of Sydney, New South Wales, Australia) are measured essentially as described by Broekaert et al. (1990) FEMS Microbiol Lett 69:55-59.
as §2, with “A. flavus. A. niger” for “T. rubrum, T. interdigitale”, “A. fumigatus” for “M. fulvum”, “albicans, C. glabrata, C. tropicalis, C. neoformans and C. gattii” for “albicans”
as §3, with “μm” for “Ξ m”, “(A. flavus, A. niger, A. fumigatus),” for “(T. rubrum, T. interdigitale, M. fulvum) or”, “albicans, C. glabrata, C. tropicalis) or 1×10^6 cells/mL (C. neoformans, C. gattii)” for “albicans)”

C. neoformans = assay: Inhibition of growth of Cryptococcus neoformans, Example 2 antifungal assay; format: cell-based; conditions: ½ strength PDB, 30° C., A595
Protocol: as §4
as §2, with “A. flavus. A. niger” for “T. rubrum, T. interdigitale”, “A. fumigatus” for “M. fulvum”, “albicans, C. glabrata, C. tropicalis, C. neoformans and C. gattii” for “albicans”
as §3, with “μm” for “Ξ m”, “(A. flavus, A. niger, A. fumigatus),” for “(T. rubrum, T. interdigitale, M. fulvum) or”, “albicans, C. glabrata, C. tropicalis) or 1×10^6 cells/mL (C. neoformans, C. gattii)” for “albicans)”

A. fumigatus = assay: Inhibition of growth of Aspergillus fumigatus, Example 2 antifungal assay; format: cell-based; conditions: ½ strength PDB, 30° C., A595
Protocol: as §4
as §2, with “A. flavus. A. niger” for “T. rubrum, T. interdigitale”, “A. fumigatus” for “M. fulvum”, “albicans, C. glabrata, C. tropicalis, C. neoformans and C. gattii” for “albicans”
as §3, with “μm” for “Ξ m”, “(A. flavus, A. niger, A. fumigatus),” for “(T. rubrum, T. interdigitale, M. fulvum) or”, “albicans, C. glabrata, C. tropicalis) or 1×10^6 cells/mL (C. neoformans, C. gattii)” for “albicans)”

T. albicans = assay: Inhibition of growth of C. albicans by plant defensins, Example 1 (microtitre A595 antifungal assay); format: cell-based; conditions: Table 3; ½ strength PDB, 30° C., A595
Protocol: as §1, §2, §3

A. flavus = assay: Inhibition of growth of A. flavus, Example 2 antifungal assay; format: cell-based; conditions: ½ strength PDB, 30° C., A595
Protocol: as §4
as §2, with “A. flavus. A. niger” for “T. rubrum, T. interdigitale”, “A. fumigatus” for “M. fulvum”, “albicans, C. glabrata, C. tropicalis, C. neoformans and C. gattii” for “albicans”
as §3, with “μm” for “Ξ m”, “(A. flavus, A. niger, A. fumigatus),” for “(T. rubrum, T. interdigitale, M. fulvum) or”, “albicans, C. glabrata, C. tropicalis) or 1×10^6 cells/mL (C. neoformans, C. gattii)” for “albicans)”

E. coli = format: cell-based, Escherichia coli; conditions: for IC50: Mueller-Hinton Broth, 37° C., 18 hours, up to 20 μM, read-out: IC50 against E. coli
Protocol: (§5) A single E. coli or B. subtilis colony was used to inoculate 5 ml of Luria-Bertani media and grown overnight at 37° C. The following day, the optical density of the culture was measured and the bacteria diluted to an optical density at 600 nm (OD600) of 0.01 in Mueller-Hinton Broth. Diluted E. coli or B. subtilis were added to 96-well plates with defensins at concentrations of 20 μM, 10 μM, 5 μM, 2.5 μM, 1.25 μM, 0.625 μM or 0.3125 μM. Plates were read at OD595 to obtain time zero data points. Plates were incubated at 37° C. for 18 hours before reading again at OD595 to assess the amount of bacterial growth.

T. interdigitale = assay: Inhibition of growth of T. interdigitale by plant defensins (microtitre A595 antifungal assay); format: cell-based, Trichophyton interdigitale; conditions: ½ strength PDB, 30° C.
Protocol: as §1, §2, §3

C. gattii = assay: Inhibition of growth of C. gattii, Example 2 antifungal assay; format: cell-based; conditions: ½ strength PDB, 30° C., A595
Protocol: as §4
as §2, with “A. flavus. A. niger” for “T. rubrum, T. interdigitale”, “A. fumigatus” for “M. fulvum”, “albicans, C. glabrata, C. tropicalis, C. neoformans and C. gattii” for “albicans”
as §3, with “μm” for “Ξ m”, “(A. flavus, A. niger, A. fumigatus),” for “(T. rubrum, T. interdigitale, M. fulvum) or”, “albicans, C. glabrata, C. tropicalis) or 1×10^6 cells/mL (C. neoformans, C. gattii)” for “albicans)”

C. glabrata = assay: Inhibition of growth of C. glabrata, Example 2 antifungal assay; format: cell-based; conditions: ½ strength PDB, 30° C., A595
Protocol: as §4
as §2, with “A. flavus. A. niger” for “T. rubrum, T. interdigitale”, “A. fumigatus” for “M. fulvum”, “albicans, C. glabrata, C. tropicalis, C. neoformans and C. gattii” for “albicans”
as §3, with “μm” for “Ξ m”, “(A. flavus, A. niger, A. fumigatus),” for “(T. rubrum, T. interdigitale, M. fulvum) or”, “albicans, C. glabrata, C. tropicalis) or 1×10^6 cells/mL (C. neoformans, C. gattii)” for “albicans)”

B. subtilis = assay: Inhibition of the growth of Bacillus subtilis (OD595, 18 hours); format: cell-based; conditions: for IC50: Mueller-Hinton Broth, 37° C., 18 hours, up to 20 μM, read-out: IC50 against B. subtilis
Protocol: as §5

M. fulvum = assay: Inhibition of growth of Microsporum fulvum by plant defensins (microtitre A595 antifungal assay); format: cell-based; conditions: ½ strength PDB, 30° C., A595
Protocol: as §1, §2, §3

T. rubrum = assay: Inhibition of growth of Trichophyton rubrum by plant defensins (microtitre A595 antifungal assay); format: cell-based; conditions: ½ strength PDB, 30° C.
Protocol: as §1, §2, §3

C. albicans = assay: Inhibition of growth of Candida albicans, Example 2 antifungal assay; format: cell-based; conditions: Table 4; ½ strength PDB, 30° C., A595
Protocol: as §4
as §2, with “A. flavus. A. niger” for “T. rubrum, T. interdigitale”, “A. fumigatus” for “M. fulvum”, “albicans, C. glabrata, C. tropicalis, C. neoformans and C. gattii” for “albicans”
as §3, with “μm” for “Ξ m”, “(A. flavus, A. niger, A. fumigatus),” for “(T. rubrum, T. interdigitale, M. fulvum) or”, “albicans, C. glabrata, C. tropicalis) or 1×10^6 cells/mL (C. neoformans, C. gattii)” for “albicans)”

A. niger = assay: Inhibition of growth of A. niger, Example 2 antifungal assay; format: cell-based; conditions: ½ strength PDB, 30° C., A595
Protocol: as §4
as §2, with “A. flavus. A. niger” for “T. rubrum, T. interdigitale”, “A. fumigatus” for “M. fulvum”, “albicans, C. glabrata, C. tropicalis, C. neoformans and C. gattii” for “albicans”
as §3, with “μm” for “Ξ m”, “(A. flavus, A. niger, A. fumigatus),” for “(T. rubrum, T. interdigitale, M. fulvum) or”, “albicans, C. glabrata, C. tropicalis) or 1×10^6 cells/mL (C. neoformans, C. gattii)” for “albicans)”

[2] = at the concentrations tested (0.3125-20 μM)

Substance: HXL004: Class I plant defensin from Nicotiana benthamiana (RTCESQSHRFKGLCFSRSNCASVCHTEGFNGGHCRGFRRRCFCTRHC; HXL004 Nicotiana benthamiana)
- Activity across the range of fungal pathogens [1]: intermediate activity
- IC50 against C. tropicalis (C. tropicalis): 5 µg/mL
- IC50 against C. neoformans (C. neoformans): 7 µg/mL
- IC50 against A. fumigatus (A. fumigatus): 20 µg/mL
- IC50 against T. albicans (T. albicans): 20 µg/mL
- IC50 against A. flavus (A. flavus): >100 µg/mL
- IC50 (E. coli): 2.5 µM
- IC50 against T. interdigitale (T. interdigitale): 19 µg/mL
- IC50 against C. gattii (C. gattii): 20 µg/mL
- IC50 against C. glabrata (C. glabrata): 20 µg/mL
- IC50 (B. subtilis): 2.6 µM
- IC50 against M. fulvum (M. fulvum): 12 µg/mL
- IC50 against T. rubrum (T. rubrum): 27.5 µg/mL
- IC50 against C. albicans (C. albicans): 20 µg/mL
- IC50 against A. niger (A. niger): 45 µg/mL

Substance: HXL005: Class I plant defensin from Taraxcum kok-saghyz (KMCQTTSHAFSCVNDSGCSGSCEKQGFASGKCDGVRRRCTCYKKC; HXL005 Taraxcum kok-saghyz)
- Activity across the range of fungal pathogens [1]: most effective
- IC50 against C. tropicalis (C. tropicalis): 12 µg/mL
- IC50 against C. neoformans (C. neoformans): 5 µg/mL
- IC50 against A. fumigatus (A. fumigatus): 11 µg/mL
- IC50 against T. albicans (T. albicans): 22 µg/mL
- IC50 against A. flavus (A. flavus): 25 µg/mL
- IC50 (E. coli): > 20 µM
- Inhibition of growth of E. coli (E. coli; [2]): did not inhibit the growth
- IC50 against T. interdigitale (T. interdigitale): 3.5 µg/mL
- IC50 against C. gattii (C. gattii): 14 µg/mL
- IC50 against C. glabrata (C. glabrata): 11 µg/mL
- IC50 (B. subtilis): > 20 µM
- Inhibition of growth of B. subtilis (B. subtilis; [2]): did not inhibit the growth
- IC50 against M. fulvum (M. fulvum): 5 µg/mL
- IC50 against T. rubrum (T. rubrum): 3 µg/mL
- IC50 against C. albicans (C. albicans): 22 µg/mL
- IC50 against A. niger (A. niger): 7.5 µg/mL

Substance: HXL012: Class I plant defensin from Amaranthus retroflexus (RMCKAPSKLFRGMCGIRDSNCDSVCRAEGMAAGDCHGLRRRCICSRPC; HXL012 Amaranthus retroflexus)
- Activity across the range of fungal pathogens [1]: intermediate activity
- IC50 against C. tropicalis (C. tropicalis): 10 µg/mL
- IC50 against C. neoformans (C. neoformans): 8 µg/mL
- IC50 against A. fumigatus (A. fumigatus): 15 µg/mL
- IC50 against T. albicans (T. albicans): 42 µg/mL
- IC50 against A. flavus (A. flavus): 45 µg/mL
- IC50 (E. coli): > 20 µM
- IC50 against T. interdigitale (T. interdigitale): 2 µg/mL
- IC50 against C. gattii (C. gattii): 38 µg/mL
- IC50 against C. glabrata (C. glabrata): >100 µg/mL
- IC50 (B. subtilis): 20 µM
- IC50 against M. fulvum (M. fulvum): 18 µg/mL
- IC50 against T. rubrum (T. rubrum): 2 µg/mL
- IC50 against C. albicans (C. albicans): 42 µg/mL
- IC50 against A. niger (A. niger): 12.5 µg/mL
